Values of other authors in US20050221347A1, “Inhibitors of binding between proteins and macromolecular ligands” (Thrasos, Inc., priority 1999, published 2005).

Biological target: alpha subunit of the interleukin-2 receptor (Homo sapiens, UniProt P60568)
Sequence (P60568 21-153): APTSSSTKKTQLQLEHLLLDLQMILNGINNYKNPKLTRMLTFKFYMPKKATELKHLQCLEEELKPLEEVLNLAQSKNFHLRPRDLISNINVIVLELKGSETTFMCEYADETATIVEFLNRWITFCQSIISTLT

SMILES: COC(=O)[C@H](Cc1ccc(C#Cc2ccccc2)cc1)NC(=O)C[C@H]1CCCN(C(=N)N)C1 [Structural Formula (I)]
- Kd (binding to the alpha subunit of the interleukin-2 receptor, described in Tilley et al., J. Am. Chem. Soc 119:7589 (1997)): ~3 µM
- inhibition of binding of interleukin 2 to the interleukin-2 receptor (result in words, Tilley et al. 1997): inhibits the binding of interleukin 2
